Reference: patent US20080242663A1, “NOVEL PYRIMIDINE DERIVATIVES 698” (ASTRAZENECA AB, priority 2007, published 2008)

Target: T1, recombinant EphB4 (Homo sapiens, UniProt P54760)
T1 construct: amino acids 563-987; Swiss-Prot Acc; No. P54760; purchased ProQinase GmbH 0178-0000-3
T1 sequence (P54760 563-987): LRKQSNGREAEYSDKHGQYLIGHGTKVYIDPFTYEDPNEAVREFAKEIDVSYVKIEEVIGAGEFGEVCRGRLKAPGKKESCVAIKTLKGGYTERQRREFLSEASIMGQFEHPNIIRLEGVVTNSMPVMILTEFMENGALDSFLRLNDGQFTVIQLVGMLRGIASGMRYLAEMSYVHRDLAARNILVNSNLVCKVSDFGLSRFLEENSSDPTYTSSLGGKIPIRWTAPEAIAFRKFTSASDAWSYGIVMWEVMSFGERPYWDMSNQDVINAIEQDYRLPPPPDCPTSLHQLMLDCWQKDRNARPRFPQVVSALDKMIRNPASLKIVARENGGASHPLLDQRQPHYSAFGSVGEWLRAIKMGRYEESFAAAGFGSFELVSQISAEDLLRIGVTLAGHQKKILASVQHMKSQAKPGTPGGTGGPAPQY
Assay: In vitro EphB4 enzyme assay (Alphascreen)
Format: biochemical
Protocol: This assay detects inhibitors of EphB4-mediated phosphorylation of a polypeptide substrate using Alphascreen™ luminescence detection technology. Briefly, recombinant EphB4 was incubated with a biotinylated-polypeptide substrate (biotin-poly-GAT) in presence of magnesium-ATP. The reaction was stopped by addition of EDTA, together with streptavidin-coated donor beads which bind the biotin-substrate containing any phosphorylated tyrosine residues. Anti-phosphotyrosine antibodies present on acceptor beads bind to phosphorylated substrate, thus bringing the donor & acceptor beads into close proximity. Subsequent excitation of the donor beads at 680 nm generated singlet oxygen species that interact with a chemiluminescer on the acceptor beads, leading to light emission at 520-620 nm. The signal intensity is directly proportional to the level of substrate phosphorylation and thus inhibition is measured by a decrease in signal.
Assay plates were then incubated at room temperature for 1 hr. […] The plates were sealed under natural lighting conditions, wrapped in aluminium foil and incubated in the dark for a further 20 hrs.
The resulting assay signal was determined on the Perkin Elmer EnVision plate reader. The minimum value was subtracted from all values, and the signal plotted against compound concentration to generate IC50 data.

SMILES	IC50 [nM]
Cc1cc(C)c(N(C)c2ccnc(Nc3cc(N4CCOCC4)cc(N4CCOCC4)c3)n2)c(C)c1 [Example 10.13, N-(3,5-dimorpholin-4-ylphenyl)-N′-methyl-N′-(2,4,6-trimethylphenyl)pyrimidine-2,4-diamine]	811
CN(c1ccnc(Nc2cc(N3CCOCC3)cc(N3CCOCC3)c2)n1)c1ccc(Cl)cc1F [Example 15.17, N′-(4-chloro-2-fluoro-phenyl)-N-(3,5-dimorpholin-4-ylphenyl)-N′-methyl-pyrimidine-2,4-diamine]	1150
Cc1ccc(CO)cc1N(CC(C)C)c1ccnc(Nc2cc(N3CCOCC3)cc(S(C)(=O)=O)c2)n1 [Example 8.3, [4-methyl-3-[2-methylpropyl-[2-[(3-methylsulfonyl-5-morpholin-4-yl-phenyl)amino]pyrimidin-4-yl]amino]phenyl]methanol]	917
Cc1ccc(N(C)c2ccnc(Nc3cc(N4CCOCC4)cc(N4CCOCC4)c3)n2)cc1Cl [Example 15.19, N′-(3-chloro-4-methyl-phenyl)-N-(3,5-dimorpholin-4-ylphenyl)-N′-methyl-pyrimidine-2,4-diamine]	1730
CN(c1cccc(Cl)c1)c1ccnc(Nc2cc(C(=O)N3CCCC3)cc(N3CCOCC3)c2)n1 [Example 19.9]	754
CN(c1cccc(Cl)c1)c1ccnc(Nc2cc(C(=O)NC3CCOCC3)cc(N3CCOCC3)c2)n1 [Example 19.24, 3-[[4-[(3-chlorophenyl)-methylamino]pyrimi-din-2-yl]amino]-5-morpholin-4-yl-N-(oxan-4-yl)benzamide]	1000
COC(C)CCOc1cc(Nc2nccc(N(C)c3cc(CO)ccc3C)n2)cc(N2CCOCC2)c1 (stereo not shown) [Example 17.6, [3-[[2-[[3-(3-methoxybutoxy)-5-morpholin-4-yl-phenyl]amino]pyrimidin-4-yl]-methyl-amino]-4-methyl-phenyl]methanol]	1210
Cc1cccc(Cl)c1N(C)c1ccnc(Nc2cc(N3CCOCC3)cc(N3CCOCC3)c2)n1 [Example 15.20, N′-(2-chloro-6-methyl-phenyl)-N-(3,5-dimorpholin-4-ylphenyl)-N′-methyl-pyrimidine-2,4-diamine]	1750
Cc1ccc(CO)cc1N(C)c1ccnc(Nc2cc(OC3CCC3)cc(N3CCOCC3)c2)n1 [Example 17.5, [3-[[2-[(3-cyclobutyloxy-5-morpholin-4-yl-phenyl)amino]pyrimidin-4-yl]-methyl-amino]-4-methyl-phenyl]methanol]	951
CN(c1ccc(C#N)cc1)c1ccnc(Nc2cc(N3CCOCC3)cc(N3CCOCC3)c2)n1 [Example 10.17, 4-[[2-[(3,5-dimorpholin-4-ylphenyl)amino]pyrim-idin-4-yl]-methyl-amino]benzonitrile]	9780
Cc1ccc(CO)cc1N(CC1CC1)c1ccnc(Nc2cc(N3CCOCC3)cc(S(C)(=O)=O)c2)n1 [Example 8.4, [3-[cyclopropyl-methyl-[2-[(3-methylsulfonyl-5-morpholin-4-yl-phenyl)amino]pyrimidin-4-yl]amino]-4-methyl-phenyl]methanol]	1070
COc1ccc(C)c(N(CCO)c2ccnc(Nc3cc(N4CCOCC4)cc(N4CCOCC4)c3)n2)c1 [Example 22.4, 2-[[2-[(3,5-dimorpholin-4-ylphenyl)amino]pyrimidin-4-yl]-(5-methoxy-2-methyl-phenyl)amino]ethanol]	802
CC(C)N(C)C(=O)c1cc(Nc2nccc(N(C)c3cccc(Cl)c3)n2)cc(N2CCOCC2)c1 [Example 19.8]	1450
COc1ccc(C)c(N(c2ccnc(Nc3cc(N4CCOCC4)cc(N4CCOCC4)c3)n2)C(C)C)c1 [Example 22.2, N-(3,5-dimorpholin-4-ylphenyl)-N′-(5-methoxy-2-methyl-phenyl)-N′-propan-2-yl-pyrimidine-2,4-diamine]	1860

Now those with a lower IC50, led by results:

IC50 [nM]	SMILES
426	COc1ccc(NC(C)=O)c(N(C)c2ccnc(Nc3cc(N4CCOCC4)cc(S(C)(=O)=O)c3)n2)c1 [Example 13.2, N-[4-methoxy-2-[methyl-[2-[(3-methylsulfonyl-5-morpholin-4-yl-phenyl)amino]pyrimidin-4-yl]amino]phenyl]acetamide]
0.581	CN1CCN(c2cc(Nc3nccc(N(C)c4cccc(Cl)c4)n3)cc(N3CCOCC3)c2)CC1 [Example 24, N4-(3-chlorophenyl)-N4-methyl-N2-[3-(4-methylpiperazin-1-yl)-5-morpholin-4-ylphenyl]pyrimidine-2,4-diamine]
11.5	CN(c1ccnc(Nc2cc(N3CCOCC3)cc(N3CCOCC3)c2)n1)c1cc(CO)ccc1F [Example 25.3, (3-((2-(3,5-dimorpholinophenylamino)pyrimidin-4-yl)(methyl)amino)-4-fluorophenyl)methanol]
75.3	CCN(C)C(=O)c1cc(Nc2nccc(N(C)c3cc(CO)ccc3C)n2)cc(N2CCOCC2)c1 [Example 18.4, N-ethyl-3-[[4-[[5-(hydroxymethyl)-2-methyl-phenyl]-methyl-amino]pyrimidin-2-yl]amino]-N-methyl-5-morpholin-4-yl-benzamide]
10.3	COc1ccc(CO)c(N(C)c2ccnc(Nc3cc(N4CCOCC4)cc(N4CCOCC4)c3)n2)c1 [Example 25.7, (2-((2-(3,5-dimorpholinophenylamino)pyrimidin-4-yl)(methyl)amino)-4-methoxyphenyl)methanol]
680	COc1ccc(OC)c(N(C)c2ccnc(Nc3cc(N4CCOCC4)cc(N4CCOCC4)c3)n2)c1 [Example 15.4, N′-(2,5-dimethoxyphenyl)-N-(3,5-dimorpholin-4-ylphenyl)-N′-methyl-pyrimidine-2,4-diamine]
132	CCOc1cc(Nc2nccc(N(C)c3cc(CO)ccc3C)n2)cc(N2CCOCC2)c1 [Example 16, [3-[[2-[(3-ethoxy-5-morpholin-4-yl-phenyl)amino]pyrimidin-4-yl]-methyl-amino]-4-methyl-phenyl]methanol]
9.73	Cc1ccc(CO)cc1N(C)c1ccnc(Nc2cc(N3CCOCC3)cc(N3CCC(=O)CC3)c2)n1 [Example 7.19, 1-(3-(4-((5-(hydroxymethyl)-2-methylphenyl)(methyl)amino)pyrimidin-2-ylamino)-5-morpholinophenyl)piperidin-4-one]
370	CN(c1ccnc(Nc2cc(N3CCOCC3)cc(N3CCOCC3)c2)n1)c1cccc(F)c1F [Example 14, N′-(2,3-difluorophenyl)-N-(3,5-dimorpholin-4-ylphenyl)-N′-methyl-pyrimidine-2,4-diamine]
602	CN(c1ccnc(Nc2cc(N3CCOCC3)cc(N3CCOCC3)c2)n1)c1ccc(F)c(F)c1F [Example 15.9, N-(3,5-dimorpholin-4-ylphenyl)-N′-methyl-N′-(2,3,4-trifluorophenyl)pyrimidine-2,4-diamine]
6.45	Cc1ccc(CO)cc1N(C)c1ccnc(Nc2cc(N3CCOCC3)cc(N3CCOC[C@H]3C)c2)n1 [Example 7.18, (R)-(4-methyl-3-(methyl(2-(3-(3-methylmorpholino)-5-morpholinophenyl-amino)pyrimidin-4-yl)amino)phenyl)methanol]
656	CN(c1cccc(Cl)c1)c1ccnc(Nc2cc(C(=O)N3CCOCC3)cc(N3CCOCC3)c2)n1 [Example 19.10, [3-[[4-[(3-chlorophenyl)-methyl-amino]pyrimidin-2-yl]amino]-5-morpholin-4-yl-phenyl]-morpholin-4-yl-methanone]
118	COCCN(C)C(=O)c1cc(Nc2nccc(N(C)c3cc(CO)ccc3C)n2)cc(N2CCOCC2)c1 [Example 18.7, 3-[[4-[[5-(hydroxymethyl)-2-methyl-phenyl]-methyl-amino]pyrimidin-2-yl]amino]-N-(2-methoxyethyl)-N-methyl-5-morpholin-4-yl-benzamide]
419	CN(C)C(=O)c1cc(Nc2nccc(N(C)c3cccc(Cl)c3)n2)cc(N2CCOCC2)c1 [Example 19.1, 3-[[4-[(3-chlorophenyl)-methyl-amino]pyrimidin-2-yl]amino]-N,N-dimethyl-5-morpholin-4-yl-benzamide]
660	CN(c1ccc(Cl)c(Cl)c1)c1ccnc(Nc2cc(N3CCOCC3)cc(N3CCOCC3)c2)n1 [Example 10.11, N′-(3,4-dichlorophenyl)-N-(3,5-dimorpholin-4-ylphenyl)-N′-methyl-pyrimidine-2,4-diamine]
11.6	CN(c1ccnc(Nc2cc(N3CCOCC3)cc(N3CCOCC3)c2)n1)c1cccc(CO)c1F [Example 25.4, (3-((2-(3,5-dimorpholinophenylamino)pyrimidin-4-yl)(methyl)amino)-2-fluorophenyl)methanol]
395	CN(CCO)C(=O)c1cc(Nc2nccc(N(C)c3cccc(Cl)c3)n2)cc(N2CCOCC2)c1 [Example 19.2, 3-[[4-[(3-chlorophenyl)-methyl-amino]pyrimidin-2-yl]amino]-N-(2-hydroxyethyl)-N-methyl-5-morphohn-4-yl-benzamide]
